Among the data in the OligoGym collection are target mRNA inhibition values, retold here.

In this series the target is HSD17B13. Conditions: ASO, HepaRG.

Several values for one entry are separate records, joined by “and”; a condition that tells them apart may be missing. Equal values may be shown once. After the bases stand the sugars from the 5' end (letter, count) and the backbone: PS all phosphorothioate, else s phosphorothioate and o phosphodiester by linkage. Methylation of C is not given here. e = 2'-O-(2-methoxyethyl) (MOE); k = constrained ethyl (cEt); d = 2'-deoxy (DNA); m = 2'-O-methyl

Consider CGCTACTGTAGGCTAA (sugars k3 d10 k3, PS), for which, for the setting “1 µM”, the target mRNA inhibition came to 68%.
In turn, TCCAGTAGGTGTGTTT (sugars k3 d10 k3, PS) gave a target mRNA inhibition (1 µM) of 47%.
Take “TTGCAGAAATTCACCT (sugars k3 d1 m1 d8 k3, PS)”: the target mRNA inhibition (1 µM) came to 29%.
With GGAAATATAGAGGGTC (sugars k3 d10 k3, PS), the target mRNA inhibition (1 µM) was determined as 50%.
Consider AAGAGGATAGTCCATG (sugars k3 d10 k3, PS), for which the target mRNA inhibition (1 µM) worked out at 65%.
As to AACCAATCCTCAGCTT (sugars k3 d10 k3, PS), the target mRNA inhibition (1 µM) worked out at 0%.
For the setting “1 µM”, TCACCAACGACTCCAA (sugars k3 d10 k3, PS) showed a target mRNA inhibition of 19%.
The sequence “CTAAAATTGTCTAAAC (sugars kkdddddddddkekek, PS)” yielded a target mRNA inhibition (1 µM) of 19%.
In turn, AGCTTGGAAGGAGACT (sugars k3 d10 k3, PS) returned a target mRNA inhibition (1 µM) of 69%.
On to “ATAACTACAAGAGGTT (sugars k3 d1 m1 d8 k3, PS)”, for which the target mRNA inhibition (1 µM) was 61%.
On to ACGATTGTTACATCAC (sugars k3 d10 k3, PS), for which the target mRNA inhibition (1 µM) came out at 53%.
The sequence ATAGGGAGACCATGCT (sugars k3 d10 k3, PS) showed a target mRNA inhibition (1 µM) of 64%.
As for CCTATATACATCCAAG (sugars k3 d10 k3, PS), for the setting “1 µM”, the target mRNA inhibition amounted to 53%.
For the sequence AAGACTTTGAGACTCT (sugars k3 d10 k3, PS), the target mRNA inhibition (1 µM) came to 62%.
Where the note is “1 µM”, CGTTATAAGTTTCATG (sugars k3 d10 k3, PS) returned a target mRNA inhibition of 33%.
For the setting “1 µM”, ATCCCCTAAGTTATTA (sugars k3 d10 k3, PS) returned a target mRNA inhibition of 13%.
Consider GCCCTAGATTCTACAC (sugars k3 d10 k3, PS), for which the target mRNA inhibition (1 µM) came to 15%.
Same read-out and setting: the figure for AGACCTCTGTGAAAGC (sugars k3 d10 k3, PS) is 50%.
With CCCAAGCTACCTCCAA (sugars k3 d10 k3, PS), the target mRNA inhibition (1 µM) worked out at 15%.
Sequence CTACTTTCAAACCTTG (sugars k3 d10 k3, PS) showed a target mRNA inhibition (1 µM) of 57%.
On to TTACATTACAGCCTTA (sugars k3 d10 k3, PS), for which the target mRNA inhibition by setting is: (0.02 µM) 0%; (0.078 µM) 0%; (0.313 µM) 19%; (1 µM) 67%; (1.25 µM) 56%; (5 µM) 80%.
CTAACCAATTATATGA (sugars k3 d10 k3, PS) registered a target mRNA inhibition (1 µM) of 21%.
GTAGTGGGAGTCGGAT (sugars k3 d10 k3, PS): the target mRNA inhibition (1 µM) was 48%.
Still for that read-out and setting: the figure for “TGTTGATATTCTGTGG (sugars kkdddddddddkekek, PS)” is 54%.
Consider “CGTTTGACTGCTGCTA (sugars k3 d9 k3 e1, PS)”, for which the target mRNA inhibition is 4% (0.02 µM); 17% (0.078 µM); 34% (0.313 µM); 75% and 50% (1 µM); 57% (1.25 µM); 66% (5 µM).
Under “1 µM”, GTAAACGACTCTGTAA (sugars k3 d10 k3, PS) returned a target mRNA inhibition of 8%.
CTTAACAAACCTCCAC (sugars k3 d10 k3, PS): the target mRNA inhibition (1 µM) was 3%.
For TCCAGTAAAAAATTGG (sugars k3 d10 k3, PS), the target mRNA inhibition (1 µM) worked out at 12%.
Sequence AGGGAATTTATCAAAC (sugars k3 d10 k3, PS) yielded a target mRNA inhibition (1 µM) of 47%.
Still for that read-out and setting: then “ATATUCTGTGGCATGG (sugars k3 d1 m1 d8 k3, PS)”, with 63%.
With “TTGAGATAAAGCTGCC (sugars kkkdddddkdddkkke, PS)”, for the setting “1 µM”, the target mRNA inhibition amounted to 43%.
On the same count and under the same terms, then GCAAAGATCTGGCCAG (sugars k3 d10 k3, PS), with 22%.
CCTAGGATGTTGACCT (sugars k3 d10 k3, PS): for the setting “1 µM”, the target mRNA inhibition was determined as 3%.
Under “1 µM”, “CTTGAACAGTCTTAAA (sugars k3 d9 k3 e1, PS)” came in with a target mRNA inhibition of 43%.
The same measure, in the same setting: the figure for ACTCTAAATACCCTTG (sugars k3 d10 k3, PS) is 16%; for GCCAAGGGAACACTGT (sugars k3 d10 k3, PS) it is 61%; for “GTCTAAACATCTCTGG (sugars k3 d9 k3 e1, PS)” it is 49%.
“GTTGCACCGTTTTGGG (sugars k3 d1 m1 d8 k3, PS)” came in with a target mRNA inhibition (1 µM) of 38%.
As to AGATTAGTCTTGATGT (sugars k3 d10 k3, PS), the target mRNA inhibition (1 µM) came to 63%.
As for “CTTTGAGACTCTTGTT (sugars k3 d9 k3 e1, PS)”, for the setting “1 µM”, the target mRNA inhibition was 57%.
As to “GTGCATCTTAAGATAC (sugars kkdddddddddkekek, PS)”, under “1 µM”, the target mRNA inhibition was determined as 20%.
As to GACATGAGGTTTTGAT (sugars k3 d10 k3, PS), the target mRNA inhibition (1 µM) was found to be 52%.
As for AGACAGTTGAGTAGTG (sugars k3 d10 k3, PS), the target mRNA inhibition (1 µM) stood at 63%.
Turning to CTATCAACCTGCACAC (sugars k3 d10 k3, PS), the target mRNA inhibition (1 µM) amounted to 39%.
Where the note is “1 µM”, “GAGTTGCACCGTTTTG (sugars k3 d9 k3 e1, PS)” had a target mRNA inhibition of 62%.
As for ATCTAACTAACCTGAC (sugars k3 d10 k3, PS), under “1 µM”, the target mRNA inhibition turned out to be 0%.
Take GGTAGCTTTTGTCCAC (sugars k3 d10 k3, PS): under “1 µM”, the target mRNA inhibition is 66%.
Regarding “TAAACCTTCCCTGTGT (sugars kkdddddddddkekek, PS)”, the target mRNA inhibition (1 µM) stood at 9%.
For TATTTCGCTACTGTAG (sugars k3 d10 k3, PS), the target mRNA inhibition (1 µM) was found to be 48%.
Under “1 µM”, GTAAGCACAGAAGTTT (sugars k3 d10 k3, PS) showed a target mRNA inhibition of 55%.
With “GAACAGTCTTAAACCT (sugars k3 d1 m1 d8 k3, PS)”, the target mRNA inhibition is, setting by setting: (0.02 µM) 0%; (0.078 µM) 24%; (0.313 µM) 53%; (1 µM) 75%; (1.25 µM) 66%; (5 µM) 69%.
For the sequence “GATATTCTGTGGCATG (sugars k3 d9 k3 e1, PS)”, the target mRNA inhibition runs as follows: (0.02 µM) 8%; (0.078 µM) 0%; (0.313 µM) 43%; (1 µM) 71%; (1.25 µM) 65%; (5 µM) 80%.
Turning to AATAAAGCTTTGCAGC (sugars k3 d10 k3, PS), the target mRNA inhibition (1 µM) is 26%.
Turning to “GTTTTTAAGAGGCATG (sugars kkdddddddddkekek, PS)”, the target mRNA inhibition came out at 15% (0.02 µM); 13% (0.078 µM); 12% (0.313 µM); 79% (1 µM); 61% (1.25 µM); 71% (5 µM).
On to “GTCTAAACATCTCTGG (sugars kkdddddddddkekek, PS)”, for which the target mRNA inhibition (1 µM) is 50%.
As for CCTTAGAGTGAATCAT (sugars k3 d10 k3, PS), the target mRNA inhibition (1 µM) came to 65%.
The sequence CCTATTTGTAATATTG (sugars k3 d10 k3, PS) had a target mRNA inhibition (1 µM) of 0%.
In the case of “TAGCUTTTGTCCACCT (sugars k3 d1 m1 d8 k3, PS)”, the target mRNA inhibition is 8% (0.02 µM); 9% (0.078 µM); 26% (0.313 µM); 67% and 50% (1 µM); 54% (1.25 µM); 78% (5 µM).
Consider GTAATCTTGAGGCAGG (sugars k3 d10 k3, PS), for which the target mRNA inhibition (1 µM) stood at 51%.
The same measure, in the same setting: the figure for “GCACCGTTTTGGGCTA (sugars k3 d1 m1 d8 k3, PS)” is 67%; for TGTGTTCTTGTTGATA (sugars k3 d10 k3, PS) it is 69%.
“GAGATAAAGCTGCCTG (sugars k3 d9 k3 e1, PS)” displayed a target mRNA inhibition (1 µM) of 55%.
With GATCTAAAACTGAAGG (sugars k3 d10 k3, PS), the target mRNA inhibition (1 µM) is 44%.
In turn, “CTCAGGCTGTAAGAGT (sugars k3 d9 k3 e1, PS)” showed a target mRNA inhibition (1 µM) of 21%.
Same read-out and setting: the figure for AAAGTTCATTCGAATT (sugars k3 d10 k3, PS) is 63%; for TCAAGACATTCTAGCC (sugars k3 d10 k3, PS) it is 79%.
Sequence “ATGAAGTTAGTATAGT (sugars kkdddddddddkekek, PS)” came in with a target mRNA inhibition (1 µM) of 34%.
As for “ACCAAACTTCCAGCAG (sugars k3 d1 m1 d8 k3, PS)”, the target mRNA inhibition (1 µM) is 54%.
Sequence TCCAAAAGTGTCCTCG (sugars k3 d10 k3, PS) showed a target mRNA inhibition (1 µM) of 31%.
Sequence “ATGGCTACAGATTGGA (sugars k3 d1 m1 d8 k3, PS)” came in with a target mRNA inhibition (1 µM) of 44%.
On to “ACATCTCTGGGACCAA (sugars kkdddddddddkekek, PS)”, for which the target mRNA inhibition (1 µM) stood at 67%.
Regarding GAATAGCAAGCCAACA (sugars k3 d10 k3, PS), the target mRNA inhibition runs as follows: (0.02 µM) 0%; (0.078 µM) 4%; (0.313 µM) 12%; (1 µM) 64%; (1.25 µM) 20%; (5 µM) 40% and 50%.
Turning to GAAACTCACTTCCTAC (sugars k3 d10 k3, PS), the target mRNA inhibition (1 µM) was found to be 56%.
Still for that read-out and setting: then GCTACAGATTGGAATG (sugars k3 d10 k3, PS), with 47%.
Where the note is “1 µM”, CTGCTAGTGCCAAACC (sugars k3 d10 k3, PS) came in with a target mRNA inhibition of 74%.
As for GCTGTAAGAGTCAGTA (sugars k3 d10 k3, PS), the target mRNA inhibition is, setting by setting: (0.02 µM) 5%; (0.078 µM) 0%; (0.313 µM) 2%; (1 µM) 89%; (1.25 µM) 57%; (5 µM) 82%.
In turn, CTTAAGATACCCAGGT (sugars k3 d10 k3, PS) had a target mRNA inhibition (1 µM) of 36%.
On to “AATATGGGATGAGGTA (sugars k3 d9 k3 e1, PS)”, for which, for the setting “1 µM”, the target mRNA inhibition stood at 47%.
In turn, “TTGAGTAGTGTAAGCT (sugars k3 d9 k3 e1, PS)” showed a target mRNA inhibition (1 µM) of 40%.
